# Laboratory results taken from US10450549B2, “Aryloxyphenoxypropionate tolerance in turfrgass species and use of AAD1 as a selectable marker” (Dow AgroSciences, LLC, priority 2004, dated 2019).
# How the values were obtained:
# Wildtype Arabidopsis = assay: T1 Arabidopsis spray test, % visual injury 2 WAT: wildtype control; type: in vivo, Arabidopsis thaliana; conditions: for % Injury Ave / individuals with 20-40% injury / individuals with <20% injury / individuals with >40% injury: Wildtype, 2 WAT
# Description: (§1) Random individual T1 plants selected for glufosinate resistance above were confirmed for expression of the PAT protein using a PAT ELISA kit (Part no. 7000045, Strategic Diagnostics, Inc., Newark, Del.) to non-destructively confirm fidelity of selection process (manufacturer's protocol). Plants were then randomly assigned to various rates of phenoxy herbicides (dichlorprop or 2,4-D). […] Elevated rates were applied in subsequent trials (50, 200, 800, or 3200 g ae/ha).
# (§2) All auxin herbicide applications were made using the DeVilbiss sprayer as described above to apply 703 L/ha spray volume (0.4 ml solution/3-inch pot) or applied by track sprayer in a 187 L/ha spray volume. […] Dichlorprop used was technical grade (Sigma, St. Louis, Mo.) dissolved in DMSO and diluted in water (<1% DMSO final concentration). As herbicide rates increased beyond 800 g ae/ha, the pH of the spray solution became exceedingly acidic, burning the leaves of young, tender Arabidopsis plants and complicating evaluation of the primary effects of the herbicides. It became standard practice to apply these high rates of phenoxy herbicides in 200 mM Tris buffer (pH 9.0) to a final pH of ˜7-8.
# (§3) Although Arabidopsis, being a dicot, is not an optimal system for testing ACCase-inhibiting AOPP grass herbicides, AAD1 (v3)-transformed T1 plants were subjected to elevated rates (400-1600 g ae/ha) of RS-haloxyfop acid (internally synthesized) that do cause growth abnormalities and death of wildtype Arabidopsis using the DeVilbiss sprayer as described above. Injury ratings were taken 7 and 14 days after treatment. Likewise, T1 individuals were treated with the pyridyloxyacetate auxin herbicide, fluroxypyr.
# Table 16. […] Response is presented in terms of % visual injury 2 WAT. […] Since each T1 is an independent transformation event, one can expect significant variation of individual T1 responses within a given rate. An arithmetic mean and standard deviation is presented for each treatment. The range in individual response is also indicated in the last column for each rate and transformation. PAT/Cry1F-transformed Arabidopsis served as an auxin-sensitive transformed control. Wildtype Arabidopsis is untransformed.
# (§4) Table 17. T1 Arabidopsis response to a range of dichlroprop rates applied postemergence. Response is presented in terms of % visual injury 2 WAT. […] Since each T1 is an independent transformation event, one can expect significant variation of individual T1 responses within a given rate. An arithmetic mean and standard deviation is presented for each treatment. The range in individual response is also indicated in the last column for each rate and transformation. PAT/Cry1F-transformed Arabidopsis served as an auxin-sensitive transformed control. Wildtype Arabidopsis is untransformed.
# as §4, with “18.” for “17.”, “haloxyfop” for “dichlroprop”, “postemergence at artificially high rates attempting to show tolerance of the dicot Arabidopsis to the graminicide.” for “postemergence.”
# [1] = tested on: AAD1 (v3)-transformed T1 Arabidopsis; assay: T1 Arabidopsis response to postemergence herbicide (2,4-D, dichlorprop, haloxyfop, fluroxypyr), % visual injury 2 WAT: AAD1 (v3) transformants; type: in vivo, Arabidopsis thaliana; conditions: for % Injury Ave / individuals with 20-40% injury / individuals with <20% injury / individuals with >40% injury: Rebuilt AAD1 (v3) gene, 2 WAT
# Protocol: Freshly harvested T1 seed (transformed with native [AAD1 (v2)] or plant optimized [AAD1 (v3)] gene) was allowed to dry for 7 days at room temperature. T1 seed was sown in 26.5×51-cm germination trays (T.O. Plastics Inc., Clearwater, Minn.), each receiving a 200 mg aliquots of stratified T1 seed (˜10,000 seed) that had previously been suspended in 40 ml of 0.1% agarose solution and stored at 4° C. for 2 days to complete dormancy requirements and ensure synchronous seed germination.
# Sunshine Mix LP5 (Sun Gro Horticulture Inc., Bellevue, Wash.) was covered with fine vermiculite and subirrigated with Hoagland's solution until wet, then allowed to gravity drain. Each 40 ml aliquot of stratified seed was sown evenly onto the vermiculite with a pipette and covered with humidity domes (KORD Products, Bramalea, Ontario, Canada) for 4-5 days. Domes were removed 1 day prior to initial transformant selection using glufosinate postemergence spray (selecting for the co-transformed PAT gene).
# Five to six days after planting (DAP) and again 10 DAP, T1 plants (cotyledon and 2-4-1f stage, respectively) were sprayed with a 0.2% solution of Liberty herbicide (200 g ai/L glufosinate, Bayer Crop Sciences, Kansas City, Mo.) at a spray volume of 10 ml/tray (703 L/ha) using a DeVilbiss compressed air spray tip to deliver an effective rate of 280 g ai/ha glufosinate per application. Survivors (plants actively growing) were identified 5-7 days after the final spraying and transplanted individually into 3-inch pots prepared with potting media (Metro Mix 360). Transplanted plants were covered with humidity domes for 3-4 days and placed in a 22° C. growth chamber as before. Domes were subsequently removed and plants moved to the greenhouse (22+5° C., 50+30% RH, 14 h light:10 dark, minimum 500 μE/m^2s^1 natural+supplemental light) at least 1 day prior to testing for the ability of AAD1 (v3) (plant optimized gene) or AAD1 (v2) (native microbial gene) to provide phenoxy auxin herbicide resistance.
# as §1, §2, §3
# Table 16. […] Response is presented in terms of % visual injury 2 WAT. […] Since each T1 is an independent transformation event, one can expect significant variation of individual T1 responses within a given rate. An arithmetic mean and standard deviation is presented for each treatment. […]
compound,measurement,setting,value
"O=C(O)COc1ccc(Cl)cc1Cl [2,4-D, 2,4-dichlorophenoxyacetic acid]",% Injury Ave,Wildtype Arabidopsis; 50 g ae/ha,90.0%
same,individuals with 20-40% injury,Wildtype Arabidopsis; 50 g ae/ha,0
same,individuals with <20% injury,Wildtype Arabidopsis; 50 g ae/ha,0
same,individuals with >40% injury,Wildtype Arabidopsis; 50 g ae/ha,15
same,% Injury Ave,Wildtype Arabidopsis; 200 g ae/ha,95.1%
same,individuals with 20-40% injury,Wildtype Arabidopsis; 200 g ae/ha,0
same,individuals with <20% injury,Wildtype Arabidopsis; 200 g ae/ha,0
same,individuals with >40% injury,Wildtype Arabidopsis; 200 g ae/ha,15
same,% Injury Ave,Wildtype Arabidopsis; 800 g ae/ha,100.0%
same,individuals with 20-40% injury,Wildtype Arabidopsis; 800 g ae/ha,0
same,individuals with <20% injury,Wildtype Arabidopsis; 800 g ae/ha,0
same,individuals with >40% injury,Wildtype Arabidopsis; 800 g ae/ha,15
same,GR99 for Arabidopsis,Wildtype Arabidopsis; postemergence spray,about 50 g ae/ha
same,injury of some AAD1 (v3) T1 individuals,"[1]; 3,200 g ae/ha",little or no injury
same,T1 plants uninjured,"[1]; AAD1 (v3), 200 g ae/ha",> 73%
same,% Injury Ave,[1]; 50 g ae/ha,24.3%
same,individuals with 20-40% injury,[1]; 50 g ae/ha,1
same,individuals with <20% injury,[1]; 50 g ae/ha,10
same,individuals with >40% injury,[1]; 50 g ae/ha,5
same,% Injury Ave,[1]; 200 g ae/ha,14%
same,individuals with 20-40% injury,[1]; 200 g ae/ha,4
same,individuals with <20% injury,[1]; 200 g ae/ha,11
same,individuals with >40% injury,[1]; 200 g ae/ha,1
same,% Injury Ave,[1]; 800 g ae/ha,14.7%
same,individuals with 20-40% injury,[1]; 800 g ae/ha,4
same,individuals with <20% injury,[1]; 800 g ae/ha,11
same,individuals with >40% injury,[1]; 800 g ae/ha,1
